# Test results taken from US9399636B2, “Substituted dipyridylamines and uses thereof” (Genentech, Inc., priority 2012, dated 2016).
# Target: T1, DLK (Homo sapiens, UniProt Q12852)
# T1 construct: N-terminally GST-tagged DLK (catalytic domain amino acid 1-520) (Carna Bioscience); GST (N); purchased Carna Bioscience
# T1 sequence (Q12852 1-520): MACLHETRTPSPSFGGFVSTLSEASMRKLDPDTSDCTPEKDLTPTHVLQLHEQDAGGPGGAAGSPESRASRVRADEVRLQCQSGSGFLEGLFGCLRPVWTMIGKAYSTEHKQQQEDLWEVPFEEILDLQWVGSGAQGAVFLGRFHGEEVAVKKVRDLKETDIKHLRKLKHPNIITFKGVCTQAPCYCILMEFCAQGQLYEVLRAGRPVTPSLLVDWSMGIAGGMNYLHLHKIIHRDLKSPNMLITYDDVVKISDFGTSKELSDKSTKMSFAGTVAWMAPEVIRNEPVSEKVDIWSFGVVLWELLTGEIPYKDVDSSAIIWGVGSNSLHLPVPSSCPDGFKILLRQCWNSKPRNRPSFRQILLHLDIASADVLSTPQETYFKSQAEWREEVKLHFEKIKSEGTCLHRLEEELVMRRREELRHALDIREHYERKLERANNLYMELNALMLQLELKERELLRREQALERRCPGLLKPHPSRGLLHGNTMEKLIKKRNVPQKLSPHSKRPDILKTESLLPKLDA
# Test: DLK TR-FRET assay
# Type: biochemical
# Conditions: 5 nM GST-tagged DLK (catalytic domain amino acid 1-520), 40 nM HIS-tagged MKK4 K131M substrate, 30 μM ATP, 60 minutes
# Description: DLK TR-FRET assay: DLK kinase reactions (20 μL) containing 5 nM N-terminally GST-tagged DLK (catalytic domain amino acid 1-520) (Carna Bioscience), 40 nM N-terminally HIS-tagged MKK4 K131M substrate, and 30 μM ATP in kinase reaction buffer (50 mM HEPES, pH 7.5, 0.01% Triton X-100, 0.01% Bovine γ-Globulins, 2 mM DTT, 10 mM MgCl2 and 1 mM EGTA), and testing compound 1:3 serial diluted starting at 20 uM were incubated at ambient temperature for 60 minutes in 384 well OptiPlate (Perkin Elmer). To quench kinase reactions and detect phosphorylated MKK4, 15 μL of TR-FRET antibody mixture containing 2 nM anti-phosphorylated MKK4 labeled with Europium cryptate (Cisbio) and 23 nM anti-HIS labeled with D2 (Cisbio) in detection buffer (25 mM Tris pH 7.5, 100 mM NaCl, 100 mM EDTA, 0.01% Tween-20, and 200 mM KF) was added to the reaction mixture. The detection mixture was incubated for 3 hours at ambient temperature and the TR-FRET was detected with an EnVision multilabel plate reader (Perkin-Elmer) using the LANCE/DELFIA Dual Enh label from Perkin-Elmer (excitation filter: UV2 (TRF) 320 and emission filters: APC 665 and Europium 615).
row,Ki [nM],SMILES
1,18,"COC1CN(c2cc(C3CCN(C4COC4)CC3)cc(Nc3cc(C#N)ccn3)n2)C1 [Example 96, 2-[6-(3-Methoxy-azetidin-1-yl)-1′-oxetan-3-yl-1′,2′,3′,4′,5′,6′-hexahydro-[4,4′]bipyridinyl-2-ylamino]-isonicotinonitrile]"
2,0.17,"N#Cc1ccnc(Nc2cc(C3(C#N)CCNCC3)cc(N3CC4CC4C3)n2)c1 (centres unmarked) [Example 40, 6′-(3-Aza-bicyclo[3.1.0]hex-3-yl)-2′-(4-cyano-pyridin-2-ylamino)-2,3,5,6-tetrahydro-1H-[4,4′]bipyridinyl-4-carbonitrile]"
3,11.9,"N#Cc1ccnc(Nc2cc(C3CCOCC3)cc(N3CC(F)C3)n2)c1 [Example 86, 2-[6-(3-Fluoro-azetidin-1-yl)-4-(tetrahydro-pyran-4-yl)-pyridin-2-ylamino]-isonicotinonitrile]"
4,120,"Cc1cc(C2CCN(C(=O)C(F)(F)F)CC2)cc(Nc2cc(C#N)ccn2)n1 [Example 107, 2-[6-Methyl-1′-(2,2,2-trifluoro-acetyl)-1′,2′,3′,4′,5′,6′-hexahydro-[4,4′]bipyridinyl-2-ylamino]-isonicotinonitrile]"
5,16,"FC(F)c1ccnc(Nc2cc(C3CCN(C4COC4)CC3)cc(Cl)n2)c1 [Example 76, (6-Chloro-1′-oxetan-3-yl-1′,2′,3′,4′,5′,6′-hexahydro-[4,4′]bipyridinyl-2-yl)-(4-difluoromethyl-pyridin-2-yl)-amine]"
6,0.4,"Cn1cc(-c2cc(C3CCOCC3)cc(Nc3cc(C(F)(F)F)ccn3)n2)cn1 [Example 122, [6-(1-Methyl-1H-pyrazol-4-yl)-4-(tetrahydro-pyran-4-yl)-pyridin-2-yl]-(4-trifluoromethyl-pyridin-2-yl)-amine]"
7,0.84,"FC(F)c1ccnc(Nc2cc(C3CCN(C4COC4)CC3)cc(C3CC3)n2)c1 [Example 25, (6-Cyclopropyl-1′-oxetan-3-yl-1′,2′,3′,4′,5′,6′-hexahydro-[4,4′]bipyridinyl-2-yl)-(4-difluoromethyl-pyridin-2-yl)-amine]"
8,3.1,"C[C@@H]1CCCN1c1cc(C2CCOCC2)cc(Nc2cc(C(F)(F)F)ccn2)n1 [Example 125, [6-((R)-2-Methyl-pyrrolidin-1-yl)-4-(tetrahydro-pyran-4-yl)-pyridin-2-yl]-(4-trifluoromethyl-pyridin-2-yl)-amine]"
9,12,"COc1cc(C2CCN(C(C)=O)CC2)cc(Nc2cc(C#N)ccn2)n1 [Example 21, 2-(1′-Acetyl-6-methoxy-1′,2′,3′,4′,5′,6′-hexahydro-[4,4′]bipyridinyl-2-ylamino)-isonicotinonitrile]"
10,0.17,"CN1CCCC(c2cc(Nc3cc(C(F)(F)F)ccn3)nc(N3CCC(F)(F)C3)c2)C1 (centres unmarked) [Example 138, [6′-(3,3-Difluoro-pyrrolidin-1-yl)-1-methyl-1,2,3,4,5,6-hexahydro-[3,4′]bipyridinyl-2′-yl]-(4-trifluoromethyl-pyridin-2-yl)-amine]"
11,3.1,"N#Cc1ccnc(Nc2cc(C3CCOCC3)cc(Cl)n2)c1 [Example 78, 2-[6-Chloro-4-(tetrahydro-pyran-4-yl)-pyridin-2-ylamino]-isonicotinonitrile]"
12,2100,"O=C([C@@H]1CCCCN1)N1CCC(c2ccnc(Nc3ccccn3)c2)CC1 [Example 146, (S)-piperidin-2-yl(4-(2-(pyridin-2-ylamino)pyridin-4-yl)piperidin-1-yl)methanone]"
13,6.8,"FC1CN(c2cc(C3CCN(C4COC4)CC3)cc(Nc3cc(C(F)F)ccn3)n2)C1 [Example 44, (4-Difluoromethyl-pyridin-2-yl)-[6-(3-fluoro-azetidin-1-yl)-1′-oxetan-3-yl-1′,2′,3′,4′,5′,6′-hexahydro-[4,4′]bipyridinyl-2-yl]-amine]"
14,220,"Cc1cc(C2=CCOCC2)cc(Nc2cc(C#N)ccn2)n1 [Example 112, 2-[4-(3,6-Dihydro-2H-pyran-4-yl)-6-methyl-pyridin-2-ylamino]-isonicotinonitrile]"
15,0.4,"N#Cc1ccnc(Nc2cc(C3(C#N)CCOCC3)cc(N3CC4CC4C3)n2)c1 (centres unmarked) [Example 67, 2-[6-(3-Aza-bicyclo[3.1.0]hex-3-yl)-4-(4-cyano-tetrahydro-pyran-4-yl)-pyridin-2-ylamino]-isonicotinonitrile]"
16,450,"CS(=O)(=O)N1CCC(c2ccnc(Nc3cc(C#N)ccn3)c2)CC1 [Example 128, 2-(1′-Methanesulfonyl-1′,2′,3′,4′,5′,6′-hexahydro-[4,4′]bipyridinyl-2-ylamino)-isonicotinonitrile]"
17,19,"N#CC1(c2cc(Nc3cc(C(F)F)ccn3)nc(N3CCCC3=O)c2)CCOCC1 [Example 49, 4-[2-(4-Difluoromethyl-pyridin-2-ylamino)-6-(2-oxo-pyrrolidin-1-yl)-pyridin-4-yl]-tetrahydro-pyran-4-carbonitrile]"
18,3600,"Cc1ccc(Nc2cc(C3CCN(C(=O)C4CCCCC4)CC3)ccn2)nc1 [Example 145, cyclohexyl(4-(2-((5-methylpyridin-2-yl)amino)pyridin-4-yl)piperidin-1-yl)methanone]"
19,10,"N#Cc1ccnc(Nc2cc(C3CCN(C4COC4)CC3)cc(Cl)n2)c1 [Example 106, 2-(6-Chloro-1′-oxetan-3-yl-1′,2′,3′,4′,5′,6′-hexahydro-[4,4′]bipyridinyl-2-ylamino)-isonicotinonitrile]"
20,1.2,"CC(=O)N1CCC(c2cc(Nc3cc(C(F)(F)F)ccn3)nc(N3CCC(F)(F)C3)c2)CC1 [Example 143, 1-[2′-(3,3-Difluoro-pyrrolidin-1-yl)-6′-(4-trifluoromethyl-pyridin-2-ylamino)-3,4,5,6-tetrahydro-2H-[4,4′]bipyridinyl-1-yl]-ethanone]"
21,93,"Cc1cc(C2CCN(C3COC3)CC2)cc(Nc2cc(C#N)ccn2)n1 [Example 110, 2-(6-Methyl-1′-oxetan-3-yl-1′,2′,3′,4′,5′,6′-hexahydro-[4,4′]bipyridinyl-2-ylamino)-isonicotinonitrile]"
22,38,"COC1CCN(c2cc(C3CCOCC3)cc(Nc3cc(C#N)ccn3)n2)C1 (centres unmarked) [Example 101, 2-[6-(3-Methoxy-pyrrolidin-1-yl)-4-(tetrahydro-pyran-4-yl)-pyridin-2-ylamino]-isonicotinonitrile]"
23,100,"Cc1cc(C2CCN(C3COC3)CC2)cc(Nc2cc(C(F)F)ccn2)n1 [Example 27, (4-Difluoromethyl-pyridin-2-yl)-(6-methyl-1′-oxetan-3-yl-1′,2′,3′,4′,5′,6′-hexahydro-[4,4′]bipyridinyl-2-yl)-amine]"
24,150,"Cc1cc(C2CCN(CC(F)(F)F)CC2)cc(Nc2cc(C#N)ccn2)n1 [Example 72, 2-[6-Methyl-1′-(2,2,2-trifluoro-ethyl)-1′,2′,3′,4′,5′,6′-hexahydro-[4,4′]bipyridinyl-2-ylamino]-isonicotinonitrile]"
25,2.2,"CC(=O)N1CCC(c2cc(Nc3cc(C#N)ccn3)nc(OC(C)C)c2)CC1 [Example 22, 2-(1′-Acetyl-6-isopropoxy-1′,2′,3′,4′,5′,6′-hexahydro-[4,4′]bipyridinyl-2-ylamino)-isonicotinonitrile]"
26,21,"Cc1ccnc(Nc2cc(C3CCN(C4COC4)CC3)cc(N3CCC[C@H]3C)n2)c1 [Example 135, (4-Methyl-pyridin-2-yl)-[6-((R)-2-methyl-pyrrolidin-1-yl)-1′-oxetan-3-yl-1′,2′,3′,4′,5′,6′-hexahydro-[4,4′]bipyridinyl-2-yl]-amine]"
27,20,"N#Cc1ccnc(Nc2cc(C3CCN(C4COC4)CC3)cc(N3CC4(CCOC4)C3)n2)c1 [Example 93, 2-[6-(6-Oxa-2-aza-spiro[3.4]oct-2-yl)-1′-oxetan-3-yl-1′,2′,3′,4′,5′,6′-hexahydro-[4,4′]bipyridinyl-2-ylamino]-isonicotinonitrile]"
28,0.3,"C[C@@H]1CCCN1c1cc(C2CCN(C3COC3)CC2)cc(Nc2cc(C(F)F)ccn2)n1 [Example 68, (4-Difluoromethyl-pyridin-2-yl)-[6-((R)-2-methyl-pyrrolidin-1-yl)-1′-oxetan-3-yl-1′,2′,3′,4′,5′,6′-hexahydro-[4,4′]bipyridinyl-2-yl]-amine]"
29,7,"N#Cc1ccnc(Nc2cc(C3CCN(C4COC4)CC3)cc(N3CCC3)n2)c1 [Example 105, 2-(6-Azetidin-1-yl-1′-oxetan-3-yl-1′,2′,3′,4′,5′,6′-hexahydro-[4,4′]bipyridinyl-2-ylamino)-isonicotinonitrile]"
